Data taken from publication PMC9112332, “Structure-Based Design of α-Substituted Mercaptoacetamides as Inhibitors of the Virulence Factor LasB from Pseudomonas aeruginosa” (ACS Infectious Diseases, 2022).
Read-outs that look alike come from different tables or passages of the source.

Experiments:
HDAC-8 = molecular target: T1, HDAC-8 (Homo sapiens, UniProt Q9BY41); assay: Human off-target inhibition assay, HDAC-8; type: biochemical
T1 sequence (Q9BY41 1-377): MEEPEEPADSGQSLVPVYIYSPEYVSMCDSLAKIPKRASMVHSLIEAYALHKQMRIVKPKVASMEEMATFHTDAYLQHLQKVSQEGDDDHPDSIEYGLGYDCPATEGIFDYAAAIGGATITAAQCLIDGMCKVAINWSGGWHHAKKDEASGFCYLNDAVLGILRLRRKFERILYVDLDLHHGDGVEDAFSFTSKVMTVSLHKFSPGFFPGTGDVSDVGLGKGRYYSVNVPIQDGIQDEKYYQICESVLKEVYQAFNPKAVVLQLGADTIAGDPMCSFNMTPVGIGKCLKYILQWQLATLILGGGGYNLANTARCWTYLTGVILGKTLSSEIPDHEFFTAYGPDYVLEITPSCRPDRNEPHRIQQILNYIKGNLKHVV
Protocol: (§1) Table 3 Activities of Four LasB Inhibitors against the Selected MMPs (% of inhibition at 100 μM) and Further Human Off-Targets ^a | column: 3; 12; 13; 23

ColH-PD = ColH-PD (Hathewaya histolytica, UniProt Q46085); assay: biochemical; parameters: species or system C. histolyticum; conditions: for inhibition at 1 µM: read-out: % inh. of ColH-PD @1µM
MMP-14 = MMP-14 (Homo sapiens, UniProt P50281); assay: Human off-target inhibition assay, MMP-14; type: biochemical
LasB = LasB (Pseudomonas aeruginosa, UniProt Q02RJ6); assay: LasB inhibition assay (FRET-based, in vitro)
Protocol: LasB Inhibition Assay. The purification of LasB from P. aeruginosa P14 supernatant as well
as the subsequent performance of the FRET-based in vitro inhibition assay was performed as
described previously.1 All samples were run in duplicate for each condition, and experiments
were performed independently at least twice.

MMP-7 = molecular target: T2, MMP-7 (Homo sapiens, UniProt P09237); assay: Human off-target inhibition assay, MMP-7; type: biochemical
T2 sequence (P09237 95-267): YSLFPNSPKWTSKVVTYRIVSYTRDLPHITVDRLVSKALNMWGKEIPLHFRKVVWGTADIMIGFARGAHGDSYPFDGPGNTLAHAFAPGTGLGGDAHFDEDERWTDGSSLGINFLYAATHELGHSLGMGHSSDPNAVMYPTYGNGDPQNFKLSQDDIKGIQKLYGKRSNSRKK

MMP-1 = molecular target: T3, MMP-1 (Homo sapiens, UniProt P03956); assay: Human off-target inhibition assay, MMP-1; type: biochemical
T3 sequence (P03956 100-469): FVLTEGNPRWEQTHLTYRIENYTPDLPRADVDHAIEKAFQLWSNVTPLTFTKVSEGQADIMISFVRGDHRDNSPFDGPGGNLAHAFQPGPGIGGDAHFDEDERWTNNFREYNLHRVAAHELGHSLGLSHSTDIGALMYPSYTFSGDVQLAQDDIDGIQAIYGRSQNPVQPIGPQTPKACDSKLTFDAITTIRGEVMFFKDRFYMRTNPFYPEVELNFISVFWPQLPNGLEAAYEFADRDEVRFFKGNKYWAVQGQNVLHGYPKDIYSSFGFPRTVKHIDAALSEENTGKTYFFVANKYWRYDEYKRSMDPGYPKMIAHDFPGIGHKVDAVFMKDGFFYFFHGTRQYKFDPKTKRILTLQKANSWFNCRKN

MMP-3 = MMP-3 (Homo sapiens, UniProt P08254); assay: Human off-target inhibition assay, MMP-3; type: biochemical
HDAC-3 = HDAC-3 (Homo sapiens, UniProt O15379); assay: Human off-target inhibition assay, HDAC-3; type: biochemical
Protocol: as §1

MMP-8 = MMP-8 (Homo sapiens, UniProt P22894); assay: Human off-target inhibition assay, MMP-8; type: biochemical
MMP-2 = molecular target: T4, MMP-2 (Homo sapiens, UniProt P08253); assay: Human off-target inhibition assay, MMP-2; type: biochemical
T4 sequence (P08253 110-660): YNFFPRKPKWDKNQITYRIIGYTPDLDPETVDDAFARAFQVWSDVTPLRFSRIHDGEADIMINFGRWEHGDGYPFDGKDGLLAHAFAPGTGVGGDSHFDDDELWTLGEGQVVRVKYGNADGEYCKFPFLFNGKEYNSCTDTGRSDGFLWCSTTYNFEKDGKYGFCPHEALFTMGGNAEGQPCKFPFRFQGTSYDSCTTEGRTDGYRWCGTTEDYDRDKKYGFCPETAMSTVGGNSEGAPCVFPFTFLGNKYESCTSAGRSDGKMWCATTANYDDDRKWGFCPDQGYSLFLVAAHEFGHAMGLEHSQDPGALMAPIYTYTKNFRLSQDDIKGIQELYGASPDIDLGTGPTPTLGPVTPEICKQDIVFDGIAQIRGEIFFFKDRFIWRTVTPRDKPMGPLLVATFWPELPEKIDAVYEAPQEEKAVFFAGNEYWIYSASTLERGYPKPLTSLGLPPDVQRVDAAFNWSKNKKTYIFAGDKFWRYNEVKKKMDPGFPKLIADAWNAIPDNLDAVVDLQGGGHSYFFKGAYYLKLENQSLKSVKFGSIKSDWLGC

[1] = system: NHDF cells treated with wt PA14 supernatant; type: cell-based, human; conditions: 15% (v/v) wt PA14 supernatant; for effect on viability of NHDF cells treated with wt PA14 supernatant (in words): MTT
zebrafish embryos = assay: Zebrafish embryo toxicity (maximum tolerated concentration) assay; type: in vivo; conditions: for toxicity (larvae with toxicity signs): Table S2
[2] = system: A549 cells treated with ΔlasB PA14 supernatant; type: cell-based, human; conditions: 15% (v/v) ΔlasB PA14 supernatant, MTT
ADAM17 = ADAM17 (Homo sapiens, UniProt P78536); assay: Human off-target inhibition assay, ADAM17 (TACE); type: biochemical
G. mellonella larvae = assay: In vivo Galleria mellonella virulence assay; conditions: compound with wt PA14 supernatant, after 6 days
[3] = system: A549 cells treated with wt PA14 supernatant; conditions: 15% (v/v) wt PA14 supernatant; for effect on viability of A549 cells treated with wt PA14 supernatant (in words): MTT
[4] = Cytotoxicity assay, HEK293; type: cell-based; conditions: HEK293 cells; human embryonic kidney cells
P. aeruginosa PA14 = assay: Antibacterial activity (MIC) assay; type: cell-based, Pseudomonas aeruginosa
Cytotoxicity assay, A549 = type: cell-based; conditions: A549 cells; adenocarcinomic human alveolar basal epithelial cells
[5] = Cytotoxicity assay, HepG2; type: cell-based; conditions: HepG2 cells; human hepatoma cell line
[6] = system: A549 cells treated with wt PA14 supernatant; assay: cells; conditions: Homo sapiens, A549, 24 h, read-out: increase in viability of A549 cells

Sequence of MMP-8 (P22894 101-467): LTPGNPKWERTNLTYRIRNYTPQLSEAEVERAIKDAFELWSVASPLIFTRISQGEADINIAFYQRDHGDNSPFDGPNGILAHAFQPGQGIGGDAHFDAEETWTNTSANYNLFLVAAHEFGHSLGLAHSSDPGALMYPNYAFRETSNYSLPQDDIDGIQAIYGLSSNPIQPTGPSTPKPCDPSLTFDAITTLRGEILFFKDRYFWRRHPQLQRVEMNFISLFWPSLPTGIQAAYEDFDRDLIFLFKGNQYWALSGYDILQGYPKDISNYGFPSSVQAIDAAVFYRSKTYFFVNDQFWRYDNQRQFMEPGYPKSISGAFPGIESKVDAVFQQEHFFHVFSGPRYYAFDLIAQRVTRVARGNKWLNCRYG
Sequence of ColH-PD (Q46085 331-721 limits assumed): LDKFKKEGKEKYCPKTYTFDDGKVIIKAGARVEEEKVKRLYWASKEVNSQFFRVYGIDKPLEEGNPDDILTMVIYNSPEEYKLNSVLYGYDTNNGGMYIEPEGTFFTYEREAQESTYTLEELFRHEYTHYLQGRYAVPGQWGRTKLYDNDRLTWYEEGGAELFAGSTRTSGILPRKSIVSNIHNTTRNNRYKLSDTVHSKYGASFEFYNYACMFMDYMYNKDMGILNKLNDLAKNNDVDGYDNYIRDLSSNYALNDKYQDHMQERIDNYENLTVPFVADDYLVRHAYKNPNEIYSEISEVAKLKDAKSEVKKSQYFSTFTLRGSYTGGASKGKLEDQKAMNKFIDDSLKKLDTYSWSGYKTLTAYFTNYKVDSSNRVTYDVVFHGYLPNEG
Sequence of LasB (Q02RJ6 198-498): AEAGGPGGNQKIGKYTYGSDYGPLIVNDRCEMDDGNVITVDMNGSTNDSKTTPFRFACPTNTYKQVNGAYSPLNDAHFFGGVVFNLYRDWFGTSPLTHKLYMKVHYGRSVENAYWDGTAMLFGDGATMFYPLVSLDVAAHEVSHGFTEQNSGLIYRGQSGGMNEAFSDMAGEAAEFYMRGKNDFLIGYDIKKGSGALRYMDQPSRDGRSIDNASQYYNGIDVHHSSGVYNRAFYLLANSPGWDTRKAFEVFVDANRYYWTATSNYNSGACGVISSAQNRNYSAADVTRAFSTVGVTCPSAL
Sequence of HDAC-3 (O15379 whole entry): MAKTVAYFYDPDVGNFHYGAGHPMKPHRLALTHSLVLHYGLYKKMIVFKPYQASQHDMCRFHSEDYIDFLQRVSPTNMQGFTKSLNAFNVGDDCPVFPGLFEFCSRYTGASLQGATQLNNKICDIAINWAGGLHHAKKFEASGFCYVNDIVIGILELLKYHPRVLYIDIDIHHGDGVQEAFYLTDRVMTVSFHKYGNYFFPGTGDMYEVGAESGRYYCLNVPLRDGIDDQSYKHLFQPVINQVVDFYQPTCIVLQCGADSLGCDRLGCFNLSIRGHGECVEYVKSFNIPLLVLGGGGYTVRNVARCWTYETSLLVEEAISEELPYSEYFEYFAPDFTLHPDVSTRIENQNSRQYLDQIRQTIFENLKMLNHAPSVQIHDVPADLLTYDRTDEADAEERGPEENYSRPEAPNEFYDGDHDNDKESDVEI
Sequence of HDAC-3 (Q9Y618 395-489 partner limits assumed): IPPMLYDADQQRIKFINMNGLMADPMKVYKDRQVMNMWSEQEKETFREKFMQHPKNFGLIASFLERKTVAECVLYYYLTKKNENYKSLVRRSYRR
Sequence of MMP-3 (P08254 100-477): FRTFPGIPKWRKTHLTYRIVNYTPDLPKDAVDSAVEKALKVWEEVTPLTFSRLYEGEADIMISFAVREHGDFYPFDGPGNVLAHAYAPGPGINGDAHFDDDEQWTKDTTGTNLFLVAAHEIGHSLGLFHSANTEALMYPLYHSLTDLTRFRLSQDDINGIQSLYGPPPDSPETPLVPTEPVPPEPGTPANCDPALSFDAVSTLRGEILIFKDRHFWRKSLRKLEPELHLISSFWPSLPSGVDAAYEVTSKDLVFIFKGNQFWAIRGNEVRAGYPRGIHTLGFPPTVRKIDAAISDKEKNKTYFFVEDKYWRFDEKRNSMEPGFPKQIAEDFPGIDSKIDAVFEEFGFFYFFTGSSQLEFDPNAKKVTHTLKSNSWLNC
Sequence of ADAM17 (P78536 215-824): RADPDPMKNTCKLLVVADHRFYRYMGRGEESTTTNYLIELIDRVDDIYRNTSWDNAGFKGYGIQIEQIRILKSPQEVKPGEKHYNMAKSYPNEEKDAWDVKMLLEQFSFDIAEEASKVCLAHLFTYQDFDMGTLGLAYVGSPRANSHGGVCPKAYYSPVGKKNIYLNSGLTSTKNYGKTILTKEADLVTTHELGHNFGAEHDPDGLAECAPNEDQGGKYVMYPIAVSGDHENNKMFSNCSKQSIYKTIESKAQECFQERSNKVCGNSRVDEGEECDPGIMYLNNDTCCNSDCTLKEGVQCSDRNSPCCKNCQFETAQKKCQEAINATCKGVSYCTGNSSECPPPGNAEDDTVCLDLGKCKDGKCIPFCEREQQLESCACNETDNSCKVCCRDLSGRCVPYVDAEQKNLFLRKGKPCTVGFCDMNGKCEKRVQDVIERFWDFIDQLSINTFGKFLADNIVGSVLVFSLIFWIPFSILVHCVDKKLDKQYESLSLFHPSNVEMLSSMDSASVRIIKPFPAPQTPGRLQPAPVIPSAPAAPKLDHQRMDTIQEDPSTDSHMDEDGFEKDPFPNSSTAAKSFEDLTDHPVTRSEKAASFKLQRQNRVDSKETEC

## Cc1ccc(NC(=O)C(S)Cc2ccccc2)cc1 (centres unmarked) [Compound 3]
HDAC-8
  IC50: > 100000 nM
ColH-PD
  Ki: 50 ± 10 nM
MMP-14
  inhibition at 100 µM: < 10%
LasB; LasB IC50 ratio vs compound 4
  boost in potency compared to compound 4: 12 fold
LasB; calculated from LasB activity
  ligand efficiency (LE): 0.43
  lipophilic ligand efficiency (LLE): 2.37
MMP-7
  inhibition at 100 µM: < 10%
MMP-1
  inhibition at 100 µM: < 10%
MMP-3
  inhibition at 100 µM: < 10%
HDAC-3
  IC50: > 100000 nM
MMP-8
  inhibition at 100 µM: < 10%
MMP-2
  inhibition at 100 µM: < 10%

## O=C(Nc1ccccc1)C(S)Cc1ccccc1 (centres unmarked) [Compound 5]
ColH-PD
  Ki: 400 ± 40 nM
LasB; read-out: IC50 against LasB, mean and SD of at least two independent experiments
  IC50: 1200 ± 100 nM

## O=C(Nc1ccc([N+](=O)[O-])cc1)C(S)Cc1ccccc1 (centres unmarked) [Compound 11]
ColH-PD
  inhibition at 1 µM: 88 ± 2%
LasB
  IC50: 1000 ± 100 nM

## COc1ccc(NC(=O)C(S)Cc2ccccc2)cc1 (centres unmarked) [Compound 12, 2-Mercapto-N-(4-methoxyphenyl)-3-phenylpropanamide]
HDAC-8
  IC50: > 100000 nM
[1]
  effect on viability of NHDF cells treated with wt PA14 supernatant (in words): Concentrations-dependent effects
Zebrafish embryos; 2 µM
  Survival rate %: 100%
  toxicity (larvae with toxicity signs): No toxicity signs were observed
Zebrafish embryos; 30 µM
  Survival rate %: 0%
  toxicity (larvae with toxicity signs): 100%
Zebrafish embryos; 30 µM, 2 dpf
  embryo observation: imp. dev.
Zebrafish embryos; 30 µM, 3 dpf
  embryo observation: all dead
Zebrafish embryos; 50 µM
  Survival rate %: 0%
  toxicity (larvae with toxicity signs): 100%
Zebrafish embryos; 50 µM, 3 dpf
  embryo observation: all dead
Zebrafish embryos; 100 µM
  Survival rate %: 0%
  toxicity (larvae with toxicity signs): 100%
Zebrafish embryos; 100 µM, 2 dpf
  embryo observation: all dead
Zebrafish embryos; zebrafish embryos, until 120 hpf
  maximum tolerated concentration (MTC): ≤ 2 µM
ColH-PD
  Ki: 40 ± 10 nM
MMP-14
  inhibition at 100 µM: < 10%
LasB
  IC50: 700 ± 30 nM
[2]
  effect on A549 cells treated with ΔlasB PA14 supernatant (in words): no effect
ADAM17
  IC50: 4100 ± 100 nM
MMP-7
  inhibition at 100 µM: < 10%
MMP-1
  inhibition at 100 µM: < 10%
MMP-3
  inhibition at 100 µM: < 10%
HDAC-3
  IC50: > 100000 nM
G. mellonella larvae
  survival of larvae: 70 ± 5%
MMP-8
  inhibition at 100 µM: 12 ± 2%
[3]
  effect on viability of A549 cells treated with wt PA14 supernatant (in words): Dose-dependent effect
MMP-2
  inhibition at 100 µM: < 10%

## O=C(Nc1ccc(O)cc1)C(S)Cc1ccccc1 (centres unmarked) [Compound 13]
[4]
  IC50: > 100000 nM
HDAC-8
  IC50: > 250000 nM
P. aeruginosa PA14; Pseudomonas aeruginosa, P. aeruginosa PA14
  MIC: > 100 µM
P. aeruginosa PA14; at 100 μM
  reduction of bacterial growth: less than 10%
[1]
  effect on viability of NHDF cells treated with wt PA14 supernatant (in words): Concentrations-dependent effects
ColH-PD
  Ki: 100 ± 20 nM
MMP-14
  inhibition at 100 µM: < 10%
LasB
  IC50: 600 ± 40 nM
[2]
  effect on A549 cells treated with ΔlasB PA14 supernatant (in words): no effect
ADAM17
  IC50: 2300 ± 1400 nM
MMP-7
  inhibition at 100 µM: < 10%
MMP-1
  inhibition at 100 µM: < 10%
MMP-3
  inhibition at 100 µM: < 10%
HDAC-3
  IC50: > 250000 nM
MMP-8
  inhibition at 100 µM: 19 ± 4%
Cytotoxicity assay, A549
  IC50: > 100000 nM
[3]
  effect on viability of A549 cells treated with wt PA14 supernatant (in words): Dose-dependent effect
[5]
  IC50: > 100000 nM
MMP-2
  inhibition at 100 µM: < 10%

## Cc1ccc(CC(S)C(=O)Nc2ccccc2)cc1 (centres unmarked) [Compound 14]
ColH-PD
  inhibition at 1 µM: 69 ± 3%
LasB
  IC50: 2800 ± 300 nM

## O=C(Nc1ccccc1)C(S)Cc1ccc(O)cc1 (centres unmarked) [Compound 15]
ColH-PD
  inhibition at 1 µM: 63 ± 2%
LasB
  IC50: 7400 ± 600 nM
LasB; LasB IC50 ratio vs compound 3
  decrease in activity compared to compound 3: 15 fold

## O=C(Nc1ccccc1)C(S)Cc1ccc(O)c([N+](=O)[O-])c1 (centres unmarked) [Compound 16]
ColH-PD
  inhibition at 1 µM: 74 ± 5%
LasB
  IC50: 2500 ± 200 nM

## O=C(Nc1ccccc1)C(S)Cc1ccc(Cl)cc1 (centres unmarked) [Compound 17]
LasB
  IC50: 1100 ± 100 nM

## O=C(Nc1nccs1)C(S)Cc1ccccc1 (centres unmarked) [Compound 18]
ColH-PD
  inhibition at 1 µM: 34 ± 3%
LasB
  IC50: 1600 ± 100 nM

## COC(=O)c1ccsc1NC(=O)C(S)Cc1ccccc1 (centres unmarked) [Compound 19]
LasB
  IC50: 8000 ± 1100 nM

## O=C(Nc1cccnc1)C(S)Cc1ccccc1 (centres unmarked) [Compound 20]
LasB
  IC50: 1200 ± 40 nM

## O=C(Nc1ccccn1)C(S)Cc1ccccc1 (centres unmarked) [Compound 21]
LasB
  IC50: 3100 ± 200 nM

## O=C(Nc1ccncc1)C(S)Cc1ccccc1 (centres unmarked) [Compound 22]
LasB
  IC50: 4900 ± 500 nM

## COc1ccc2nc(NC(=O)C(S)Cc3ccccc3)sc2c1 (centres unmarked) [Compound 24]
ColH-PD
  Ki: 28000 ± 1000 nM
[6]
  viability at 50 µM: 80 ± 15%
LasB
  IC50: 1000 ± 100 nM
[2]
  effect on A549 cells treated with ΔlasB PA14 supernatant (in words): no effect
[3]
  effect on viability of A549 cells treated with wt PA14 supernatant (in words): Dose-dependent effect

## O=C(Nc1nc2ccc(Cl)cc2s1)C(S)Cc1ccccc1 (centres unmarked) [Compound 25]
LasB
  IC50: 2400 ± 200 nM

## O=C(Nc1nc2ccccc2[nH]1)C(S)Cc1ccccc1 (centres unmarked) [Compound 26]
LasB; compared to compound 23
  inhibitory activity against LasB (in words): dramatic decrease in the inhibitory activity

## CC(C)C[C@H](NP(=O)(O)O[C@@H]1O[C@@H](C)[C@H](O)[C@@H](O)[C@H]1O)C(=O)N[C@@H](Cc1c[nH]c2ccccc12)C(=O)O [Pam, phosphoramidon, reference compound]
[1]
  cell integrity and morphology of NHDF cells (bright-field imaging): cell integrity and morphology were maintained
[3]
  cell integrity and morphology of A549 cells (bright-field imaging): cell integrity and morphology were maintained
